Measurements: ChEMBL document CHEMBL1123730, “Synthesis and pharmacological evaluation of a new class of 2-(2-aminothiazol-4-yl)-2-hydrazonoacetamido cephalosporins” (J Med Chem, 1987)
Values after ≈ are worked out from the molar mass of the structure shown.

Assays:
Serratia [1] = test: Geometrical average of minimum inhibitory concentration was determined in isosensitest broth against Serratia; format: functional
Klebsiella [2] = test: Geometrical average of minimum bactericidal concentration was determined in isosensitest broth against Klebsiella; format: functional
Escherichia coli [3] = test: Geometrical average of minimum bactericidal concentration was determined in isosensitest broth against, Escherichia coli; format: functional
Klebsiella pneumoniae [4] = test: In vivo protective dose was determined in infected swiss mice (120/strain) infected ip Klebsiella pneumoniae 102 with an inoculum size-0.5 mL of 10 E5 CFU/mL of suspension. Activity value range is 5.27-15.35; format: functional
Salmonella typhimurium [5] = test: Minimum inhibitory concentration against Salmonella Typhimurium T.O with an inoculum size-0.5 mL of 10 E6 CFU/mL of suspension; format: functional, Salmonella enterica subsp. enterica serovar Typhimurium; conditions: Salmonella enterica
Escherichia coli [6] = test: In vivo protective dose was determined in infected swiss mice (120/strain) infected ip with Escherichia coli ISM with an inoculum size-0.5 mL of 10 E6 CFU/mL of suspension. Activity value range is 3.47-6.63; format: functional
Bacillus [7] = test: Geometrical average of minimum inhibitory concentration was determined in isosensitest broth against Bacillus; format: functional
[8] = Geometrical average of minimum inhibitory concentration was determined in isosensitest broth against,gram-negative strains.; format: functional
[9] = Geometrical average of minimum inhibitory concentration was determined in isosensitest broth against, gram-positive strains.; format: functional
Sarcina [10] = test: Geometrical average of minimum bactericidal concentration was determined in isosensitest against Sarcina; format: functional
Escherichia coli [11] = test: Minimum inhibitory concentration against, Escherichia coli ISM with an inoculum size-0.5 mL of 10 E6 CFU/mL of suspension); format: functional
Staphylococcus [12] = test: (§1) Geometrical average of minimum bactericidal concentration was determined in isosensitest against Staphylococcus; format: functional
Staphylococcus [13] = test: as §1; format: functional; remark: listed apart in the source
Sarcina [14] = test: Geometrical average of minimum inhibitory concentration (MIC) in isosensitest broth against Sarcina; format: functional
Klebsiella pneumoniae [15] = test: Minimum inhibitory concentration against Klebsiella pneumoniae 102 with an inoculum size-0.5 mL of 10 E5 CFU/mL of suspension; format: functional
Streptococcus [16] = test: Geometrical average of minimum inhibitory concentration was determined in isosensitest broth against Streptococcus; format: functional
Staphylococcus [17] = test: (§2) Geometrical average of minimum inhibitory concentration was determined in isosensitest broth against Staphylococcus; format: functional
Proteus [18] = test: Geometrical average of minimum bactericidal concentration was determined in isosensitest broth against Proteus; format: functional, Proteus sp.
Salmonella typhimurium [19] = test: In vivo protective dose was determined in infected swiss mice (120/strain) infected ip against Salmonella Typhimurium T.O with an inoculum size-0.5 mL of 10 E6 CFU/mL of suspension; format: functional, Salmonella enterica subsp. enterica serovar Typhimurium; conditions: Salmonella enterica
Proteus [20] = test: Geometrical average of minimum inhibitory concentration was determined in isosensitest broth against Proteus; format: functional, Proteus sp.
Enterobacter [21] = test: Geometrical average of minimum inhibitory concentration was determined in isosensitest broth against Enterobacter; format: functional
Salmonella [22] = test: Geometrical average of minimum inhibitory concentration was determined in isosensitest broth against Salmonella; format: functional
Pseudomonas [23] = test: Geometrical average of minimum inhibitory concentration was determined in isosensitest broth against Pseudomonas; format: functional
Staphylococcus [24] = test: as §2; format: functional; remark: listed apart in the source
Bacillus [25] = test: Geometrical average of minimum bactericidal concentration was determined in isosensitest against Bacillus; format: functional
Enterobacter [26] = test: Geometrical average of minimum bactericidal concentration was determined in isosensitest against Enterobacter; format: functional
Salmonella [27] = test: Geometrical average of minimum bactericidal concentration was determined in isosensitest broth against Salmonella; format: functional
Neisseria perflava [28] = test: Geometrical average of minimum bactericidal concentration was determined in isosensitest against Neisseria perfl.; format: functional
Klebsiella [29] = test: Geometrical average of minimum inhibitory concentration was determined in isosensitest broth against Klebsiella; format: functional
Alcaligenes [30] = test: Geometrical average of minimum bactericidal concentration was determined in isosensitest against Alcaligenes; format: functional
Alcaligenes [31] = test: Geometrical average of minimum inhibitory concentration was determined in isosensitest broth against Alcaligenes; format: functional
Pseudomonas [32] = test: Geometrical average of minimum bactericidal concentration was determined in isosensitest broth against Pseudomonas; format: functional
Streptococcus [33] = test: Geometrical average of minimum bactericidal concentration was determined in isosensitest against Streptococcus; format: functional
Neisseria perflava [34] = test: Geometrical average of minimum inhibitory concentration was determined in isosensitest broth against Neisseria perfl.; format: functional
Escherichia coli [35] = test: Geometrical average of minimum inhibitory concentration was determined in isosensitest broth against Escherichia coli; format: functional
Serratia [36] = test: Geometrical average of minimum bactericidal concentration was determined in isosensitest broth against Serratia; format: functional
[37] = Geometrical average of minimum inhibitory concentration was determined in isosensitest broth against gram-positive strains.; format: functional
[38] = Geometrical average of minimum inhibitory concentration was determined in isosensitest broth against gram-negative strains.; format: functional
Klebsiella pneumoniae [39] = test: In vivo protective dose was determined in infected swiss mice (120/strain) infected ip with Klebsiella pneumoniae 102 with an inoculum size-0.5 mL of 10 E5 CFU/mL of suspension. Activity value range is 1.82-7.92; format: functional
Staphylococcus [40] = test: (§3) Geometrical average of minimum bactericidal concentration was determined in isosensitest broth against Staphylococcus; format: functional
Enterobacter [41] = test: Geometrical average of minimum bactericidal concentration was determined in isosensitest broth against Enterobacter; format: functional
Escherichia coli [42] = test: Minimum inhibitory concentration was determined against Escherichia coli ISM with an inoculum size-0.5 mL of 10 E6 CFU/mL of suspension; format: functional
Escherichia coli [43] = test: In vivo protective dose was determined in infected swiss mice (120/strain) infected ip with Escherichia coli ISM with an inoculum size-0.5 mL of 10 E6 CFU/mL of suspension. Activity value range is 0.118-0.615; format: functional
Escherichia coli [44] = test: Geometrical average of minimum bactericidal concentration was determined in isosensitest broth against Escherichia coli; format: functional
Staphylococcus [45] = test: as §3; format: functional; remark: listed apart in the source
[46] = Geometrical average of minimum inhibitory concentration in isosensitest broth against, gram-negative strains.; format: functional
Alcaligenes [47] = test: Geometrical average of minimum bactericidal concentration was determined in isosensitest broth against Alcaligenes; format: functional
Bacillus [48] = test: Geometrical average of minimum bactericidal concentration was determined in isosensitest broth against Bacillus; format: functional
Klebsiella pneumoniae [49] = test: Minimum inhibitory concentration was determined against Klebsiella pneumoniae 102 with an inoculum size-0.5 mL of 10 E5 CFU/mL of suspension; format: functional
Neisseria perflava [50] = test: Geometrical average of minimum bactericidal concentration was determined in isosensitest broth against Neisseria perfl.; format: functional
Sarcina [51] = test: Geometrical average of minimum bactericidal concentration was determined in isosensitest broth against Sarcina; format: functional
Streptococcus [52] = test: Geometrical average of minimum bactericidal concentration was determined in isosensitest broth against Streptococcus; format: functional
Sarcina [53] = test: Geometrical average of minimum inhibitory concentration was determined in isosensitest broth against Sarcina; format: functional

CO/N=C(\C(=O)N[C@@H]1C(=O)N2C(C(=O)O)=C(COC(N)=O)CS[C@H]12)c1ccco1 [CEFUROXIME]
MIC (Serratia [1]): 12.4 µg/mL (≈ 29.2 µM) | MBC (Klebsiella [2]): 4.68 µg/mL (≈ 11 µM) | MBC (Escherichia coli [3]): 4.42 µg/mL (≈ 10.4 µM) | ED50 (Klebsiella pneumoniae [4]): 9 mg/kg | MIC (Salmonella typhimurium [5]): 1.56 µg/mL (≈ 3.68 µM) | ED50 (Escherichia coli [6]): 4.8 mg/kg | MIC (Bacillus [7]): 35.4 µg/mL (≈ 83.3 µM) | MIC [8]: 10.6 µg/mL (≈ 25.1 µM) | MIC [9]: 1.11 µg/mL (≈ 2.62 µM) | MBC (Sarcina [10]): 0.55 µg/mL (≈ 1.3 µM) | MIC (Escherichia coli [11]): 2.2 µg/mL (≈ 5.18 µM) | MBC (Staphylococcus [12]): 1.67 µg/mL (≈ 3.94 µM) | MBC (Staphylococcus [13]): 17.7 µg/mL (≈ 41.7 µM) | MIC (Sarcina [14]): 0.39 µg/mL (≈ 0.919 µM) | MIC (Klebsiella pneumoniae [15]): 12.5 µg/mL (≈ 29.5 µM) | MIC (Streptococcus [16]): 15.1 µg/mL (≈ 35.7 µM) | MIC (Staphylococcus [17]): 10.5 µg/mL (≈ 24.8 µM) | MBC (Proteus [18]): 3.9 µg/mL (≈ 9.19 µM) | ED50 (Salmonella typhimurium [19]): > 90 mg/kg | MIC (Proteus [20]): 1.97 µg/mL (≈ 4.64 µM) | MIC (Enterobacter [21]): 7.01 µg/mL (≈ 16.5 µM) | MIC (Salmonella [22]): 3.12 µg/mL (≈ 7.35 µM) | MIC (Pseudomonas [23]): > 100 µg/mL | MIC (Staphylococcus [24]): 1.06 µg/mL (≈ 2.5 µM) | MBC (Bacillus [25]): 35.4 µg/mL (≈ 83.3 µM) | MBC (Enterobacter [26]): 25 µg/mL (≈ 58.9 µM) | MBC (Salmonella [27]): 6.7 µg/mL (≈ 15.8 µM) | MBC (Neisseria perflava [28]): 0.78 µg/mL (≈ 1.84 µM) | MIC (Klebsiella [29]): 3.71 µg/mL (≈ 8.74 µM) | MBC (Alcaligenes [30]): 100 µg/mL (≈ 236 µM) | MIC (Alcaligenes [31]): 50 µg/mL (≈ 118 µM) | MBC (Pseudomonas [32]): > 100 µg/mL | MBC (Streptococcus [33]): 59.5 µg/mL (≈ 140 µM) | MIC (Neisseria perflava [34]): 0.39 µg/mL (≈ 0.919 µM) | MIC (Escherichia coli [35]): 2.2 µg/mL (≈ 5.18 µM) | MBC (Serratia [36]): 28 µg/mL (≈ 66 µM)

CC(=O)OCC1=C(C(=O)O)N2C(=O)[C@@H](NC(=O)/C(=N/N)c3csc(N)n3)[C@H]2SC1
MIC [37]: 7.35 µg/mL (≈ 16.7 µM) | MIC [38]: 1.96 µg/mL (≈ 4.45 µM)

Cn1nnnc1SCC1=C(C(=O)O)N2C(=O)[C@@H](NC(=O)/C(=N/NCC(=O)O)c3csc(N)n3)[C@H]2SC1
MIC [37]: 18 µg/mL (≈ 32.5 µM) | MIC [38]: 8.59 µg/mL (≈ 15.5 µM)

Cn1nnnc1SCC1=C(C(=O)O)N2C(=O)[C@@H](NC(=O)/C(=N/NC(N)=O)c3csc(N)n3)[C@H]2SC1
MIC [37]: 76.5 µg/mL (≈ 142 µM) | MIC [38]: 16.8 µg/mL (≈ 31.2 µM)

CO/N=C(\C(=O)N[C@@H]1C(=O)N2C(C(=O)O)=C(COC(C)=O)CS[C@H]12)c1csc(N)n1 [CEFOTAXIME]
MIC (Serratia [1]): 0.09 µg/mL (≈ 0.198 µM) | ED50 (Klebsiella pneumoniae [39]): 3.8 mg/kg | MBC (Staphylococcus [40]): 3.23 µg/mL (≈ 7.09 µM) | MBC (Klebsiella [2]): 0.14 µg/mL (≈ 0.307 µM) | MBC (Enterobacter [41]): 1.97 µg/mL (≈ 4.33 µM) | MIC (Escherichia coli [42]): 0.55 µg/mL (≈ 1.21 µM) | ED50 (Escherichia coli [43]): 0.27 mg/kg | MBC (Escherichia coli [44]): 0.25 µg/mL (≈ 0.549 µM) | MIC (Bacillus [7]): 25 µg/mL (≈ 54.9 µM) | MBC (Staphylococcus [45]): 25 µg/mL (≈ 54.9 µM) | MIC [46]: 0.17 µg/mL (≈ 0.373 µM) | MIC [9]: 2.09 µg/mL (≈ 4.59 µM) | MBC (Alcaligenes [47]): 3.12 µg/mL (≈ 6.85 µM) | MBC (Bacillus [48]): 29.7 µg/mL (≈ 65.3 µM) | MIC (Streptococcus [16]): 12.3 µg/mL (≈ 27.1 µM) | MIC (Staphylococcus [17]): 5.25 µg/mL (≈ 11.5 µM) | MBC (Proteus [18]): 0.3 µg/mL (≈ 0.659 µM) | MIC (Klebsiella pneumoniae [49]): 0.13 µg/mL (≈ 0.285 µM) | MIC (Proteus [20]): 0.08 µg/mL (≈ 0.176 µM) | MBC (Neisseria perflava [50]): < 0.09 µg/mL | MIC (Enterobacter [21]): 0.31 µg/mL (≈ 0.681 µM) | MIC (Salmonella [22]): 0.24 µg/mL (≈ 0.527 µM) | MIC (Pseudomonas [23]): 21.8 µg/mL (≈ 47.9 µM) | MIC (Staphylococcus [24]): 1.61 µg/mL (≈ 3.53 µM) | MBC (Sarcina [51]): 0.04 µg/mL (≈ 0.0878 µM) | MBC (Streptococcus [52]): 35.4 µg/mL (≈ 77.6 µM) | MIC (Sarcina [53]): 0.04 µg/mL (≈ 0.0878 µM) | MBC (Salmonella [27]): 0.38 µg/mL (≈ 0.834 µM) | MIC (Klebsiella [29]): 0.12 µg/mL (≈ 0.263 µM) | MIC (Alcaligenes [31]): 1.56 µg/mL (≈ 3.43 µM) | MBC (Pseudomonas [32]): 22.3 µg/mL (≈ 48.9 µM) | MIC (Neisseria perflava [34]): < 0.09 µg/mL | MIC (Escherichia coli [35]): 0.17 µg/mL (≈ 0.373 µM) | MBC (Serratia [36]): 0.49 µg/mL (≈ 1.08 µM)

Cn1nnnc1SCC1=C(C(=O)O)N2C(=O)[C@@H](NC(=O)/C(=N\NC(N)=O)c3csc(N)n3)[C@H]2SC1
MIC [37]: 18.6 µg/mL (≈ 34.6 µM) | MIC [38]: 3.54 µg/mL (≈ 6.56 µM)

CCOC(=O)CN/N=C(/C(=O)N[C@@H]1C(=O)N2C(C(=O)O)=C(CSc3nnnn3C)CS[C@H]12)c1csc(N)n1
MIC [37]: 13.2 µg/mL (≈ 22.7 µM) | MIC [38]: 5.45 µg/mL (≈ 9.35 µM)
